Values joined by “and” are separate entries in the source; they are usually repeats but may differ in a detail not shown here. Equal values may be shown once.

The species named for the first data set is Rattus norvegicus. Kind of data set: The compound was tested for gastric ulcerogenicity in rats. Type of data set: functional, Stomach.
Conditions: not given
With `CC(C(=O)OCCc1ccccc1)c1ccc2c(c1)SCC1CCCCC1C2=O` (centres undefined), the UD50 was >124 mg/kg.

The subject of another data set is Rattus norvegicus. Kind of data set: Antiinflammatory activity was determined against rats carrageenan hind paw edema after oral administration. The format is functional.
Conditions: not given
(In general: Carrageenan injected into the paw causes an acute inflammation.)
On to `O=C(O)Cc1ccc2c(c1)C(=O)[C@H]1CCCC[C@@H]1CO2` (relative stereo), for which the 50% effective dose (ED50) was > 40 mg/kg.
Still for that read-out and setting: with `O=C(O)Cc1ccc2c(c1)OC[C@H]1CCCC[C@H]1C2=O` (relative stereo) the figure was > 40 mg/kg; with `O=C(O)Cc1ccc2c(c1)C(=O)[C@@H]1CCCC[C@@H]1CS2` (relative stereo), > 40 mg/kg.
In turn, `O=C(O)Cc1ccc2c(c1)SC[C@H]1CCCC[C@@H]1C2=O` (relative stereo) returned a 50% effective dose (ED50) of 3.24 mg/kg.
Consider `O=C(O)Cc1ccc2c(c1)C(=O)[C@@H]1CCCC[C@@H]1CO2` (relative stereo), for which the ED50 was > 40 mg/kg.
The same measure, in the same setting: under `O=C(O)Cc1ccc2c(c1)C(=O)[C@H]1CCCC[C@@H]1CS2` (relative stereo) stands > 40 mg/kg.
The same measure, in the same setting: under `O=C(O)Cc1ccc2c(c1)SC[C@H]1CCCC[C@H]1C2=O` (relative stereo) stands > 40 mg/kg; under `O=C(O)Cc1ccc2c(c1)OC[C@H]1CCCC[C@@H]1C2=O` (relative stereo), 22.1 mg/kg.
As for `CC(C(=O)O)c1ccc2c(c1)OC[C@H]1CCCC[C@@H]1C2=O` (relative stereo), the ED50 stood at 1.52 mg/kg.
In the case of `CC(C(=O)O)c1ccc2c(c1)OC[C@H]1CCCC[C@H]1C2=O` (relative stereo), the 50% effective dose (ED50) is > 40 mg/kg.
Still for that read-out and setting: under `CC(C(=O)O)c1ccc2c(c1)C(=O)[C@@H]1CCCC[C@@H]1CS2` (relative stereo) stands > 40 mg/kg; under `CC(C(=O)O)c1ccc2c(c1)C(=O)[C@@H]1CCCC[C@@H]1CO2` (relative stereo), > 40 mg/kg.
As to `CC(C(=O)O)c1ccc2c(c1)SC[C@H]1CCCC[C@@H]1C2=O` (relative stereo), the 50% effect level (ED50) was put at a dose of 1.53 mg/kg.
For the molecule `CC(C(=O)O)c1ccc2c(c1)C(=O)[C@H]1CCCC[C@@H]1CO2` (relative stereo), the median effective dose (ED50) was > 40 mg/kg.
`CC(C(=O)O)c1ccc2c(c1)SC[C@H]1CCCC[C@H]1C2=O` (relative stereo): the ED50 was > 40 mg/kg.
Take `COc1ccc2c(c1)c(CC(=O)O)c(C)n2C(=O)c1ccc(Cl)cc1` [INDOMETHACIN]: the 50% effect level (ED50) was put at a dose of 3.3 mg/kg.

The next data set is filed under the species Rattus norvegicus. Kind of data set: The compound was tested for gastric ulcerogenicity in rats; ca. 30. The format is functional, Stomach.
Conditions: not given
`CC(C(=O)O)c1ccc2c(c1)SC[C@H]1CCCC[C@@H]1C2=O` (relative stereo) registered a UD50 of 30 mg/kg.

The species entered for the next data set is Rattus norvegicus. Kind of data set: Analgesic activity was determined by measuring the dose required to inhibit acetic acid induced writhing. Type of data set: functional.
Conditions: not given
`CCOC(=O)C(C)c1ccc2c(c1)SCC1CCCCC1C2=O` (centres undefined) displayed a median effective dose (ED50) of 0.31 mg/kg.
Still for that read-out and setting: with `CC(C(=O)O)c1ccc2c(c1)SC[C@H]1CCCC[C@@H]1C2=O` (relative stereo) the figure was 0.39 mg/kg; with `COc1ccc2c(c1)c(CC(=O)O)c(C)n2C(=O)c1ccc(Cl)cc1` [INDOMETHACIN], 0.44 mg/kg.

In the next data set the test system is Rattus norvegicus. Kind of data set: Antiinflammatory activity was determined against rats carrageenan hind paw edema, after oral administration; ca. 40.
Conditions: not given
Type of data set: functional.
Molecule `CC(C(=O)O)c1ccc2c(c1)C(=O)[C@H]1CCCC[C@@H]1CS2` (relative stereo) yielded an ED50 of 40 mg/kg.

Another data set relates to Rattus norvegicus. Kind of data set: Antiinflammatory activity was determined against rat carrageenan hind paw edema, after oral administration. Type of data set: functional.
Conditions: not given
For the molecule `CC(C(=O)OCCc1ccccc1)c1ccc2c(c1)SCC1CCCCC1C2=O` (centres undefined), the ED50 was 3.53 mg/kg and 1.5 mg/kg.

Still in this data set, the particulars now being: Rattus norvegicus, po; read-out: ED50.
Regarding `CCOC(=O)C(C)c1ccc2c(c1)SCC1CCCCC1C2=O` (centres undefined), the ED50 turned out to be 2.24 mg/kg.

In the next data set the test system is Rattus norvegicus. Kind of data set: Antiinflammatory activity was determined against rat carrageenan hind paw edema after oral administration of a dose of 40 mg/kg.
Conditions: not given
As to `CC(C(=O)O)c1ccc2c(c1)SC[C@H]1CCCC[C@@H]1C2=O` (relative stereo; form 1), the 50% effective dose (ED50) came to 1.89 mg/kg.
For the molecule `CC(C(=O)O)c1ccc2c(c1)SC[C@H]1CCCC[C@@H]1C2=O` (relative stereo; form 2), the 50% effective dose (ED50) is 37.1 mg/kg.

System in the next data set: not listed separately
Kind of data set: Safety index is the ratio of UD50 to ED50 in carrageenan hind paw edema; ca. 20. The format is toxicity. The note with it: read-out: Safety index.
On to `CC(C(=O)O)c1ccc2c(c1)SC[C@H]1CCCC[C@@H]1C2=O` (relative stereo), for which the selectivity ratio came out at 20.

System in the next data set: not listed separately
Kind of data set: Safety index is the ratio of UD50 to ED50 in carrageenan hind paw edema; ca. 25. The format is toxicity. Particulars: read-out: Safety index.
Turning to `CCOC(=O)C(C)c1ccc2c(c1)SCC1CCCCC1C2=O` (centres undefined), the selectivity ratio was 25.

System in another data set: not listed separately
Kind of data set: The compound was tested for acute toxicity in mice after oral administration; ca. 200. Type of data set: organism-based. Particulars: mouse, in vivo.
Consider `CC(C(=O)O)c1ccc2c(c1)SC[C@H]1CCCC[C@@H]1C2=O` (relative stereo), for which the LD50 is 200 mg/kg.

The test system of a further data set is Rattus norvegicus. Kind of data set: Inhibition of carrageenan hind paw edema in rats after oral administration of a dose of 5 mg/kg. The format is functional.
Conditions: not given
Regarding `CC(C(=O)OCc1ccccc1)c1ccc2c(c1)SCC1CCCCC1C2=O` (centres undefined), the inhibition in vivo at 5 mg/kg was 25.6%.
In the case of `CC(C(N)=O)c1ccc2c(c1)SCC1CCCCC1C2=O` (centres undefined), the inhibition in vivo at 5 mg/kg amounted to 30.5%.
Turning to `CCCCCCOC(=O)C(C)c1ccc2c(c1)SCC1CCCCC1C2=O` (centres undefined), the inhibition in vivo at 5 mg/kg amounted to 28.3%.
On to `CC(C(=O)OCC(=O)c1ccccc1)c1ccc2c(c1)SCC1CCCCC1C2=O` (centres undefined), for which the inhibition in vivo at 5 mg/kg was determined as 26.6%.
Still for that read-out and setting: under `CC(C(=O)N(C)C)c1ccc2c(c1)SCC1CCCCC1C2=O` (centres undefined) stands 2.7%.
`CCCCCOC(=O)C(C)c1ccc2c(c1)SCC1CCCCC1C2=O` (centres undefined): the inhibition in vivo at 5 mg/kg amounted to 22.1%.
On to `CC(C)OC(=O)C(C)c1ccc2c(c1)SCC1CCCCC1C2=O` (centres undefined), for which the inhibition in vivo at 5 mg/kg was determined as 25.6%.
`CC(C(=O)OC1CCCCC1)c1ccc2c(c1)SCC1CCCCC1C2=O` (centres undefined): the inhibition in vivo at 5 mg/kg amounted to 15.6%.
`CCOCCOC(=O)C(C)c1ccc2c(c1)SCC1CCCCC1C2=O` (centres undefined): the inhibition in vivo at 5 mg/kg came out at 34.6%.
The same measure, in the same setting: with `CC(C(=O)OCCOCCO)c1ccc2c(c1)SCC1CCCCC1C2=O` (centres undefined) the figure was 28.1%.
As for `CC(C)COC(=O)C(C)c1ccc2c(c1)SCC1CCCCC1C2=O` (centres undefined), the inhibition in vivo at 5 mg/kg was 29.3%.
Turning to `CCOC(=O)C(C)c1ccc2c(c1)SCC1CCCCC1C2=O` (centres undefined), the inhibition in vivo at 5 mg/kg was 38.3%.
Still for that read-out and setting: with `CC(C(=O)Oc1ccccc1)c1ccc2c(c1)SCC1CCCCC1C2=O` (centres undefined) the figure was 22%; with `CC(C(=O)NCc1ccccc1)c1ccc2c(c1)SCC1CCCCC1C2=O` (centres undefined), -5.5%; with `CC(C(=O)N1CCCCC1)c1ccc2c(c1)SCC1CCCCC1C2=O` (centres undefined), 5.3%.
Regarding `CC(C(=O)NCCO)c1ccc2c(c1)SCC1CCCCC1C2=O` (centres undefined), the inhibition in vivo at 5 mg/kg was determined as 22.3%.
In the case of `CC(C(=O)OCc1cccnc1)c1ccc2c(c1)SCC1CCCCC1C2=O` (centres undefined), the inhibition in vivo at 5 mg/kg stood at 29.9%.
On to `CC(C(=O)NO)c1ccc2c(c1)SCC1CCCCC1C2=O` (centres undefined), for which the inhibition in vivo at 5 mg/kg was 29.9%.
Turning to `CCCOC(=O)C(C)c1ccc2c(c1)SCC1CCCCC1C2=O` (centres undefined), the inhibition in vivo at 5 mg/kg was 25.4%.
On to `CC(C(=O)OC/C=C/c1ccccc1)c1ccc2c(c1)SCC1CCCCC1C2=O` (centres undefined), for which the inhibition in vivo at 5 mg/kg came to 20.3%.
In the case of `CC(C(=O)OCCN1CCOCC1)c1ccc2c(c1)SCC1CCCCC1C2=O` (centres undefined), the inhibition in vivo at 5 mg/kg came to 22.2%.
With `CC(C(=O)OCCc1ccccn1)c1ccc2c(c1)SCC1CCCCC1C2=O` (centres undefined), the inhibition in vivo at 5 mg/kg turned out to be 25.5%.
Same read-out and setting: with `CNC(=O)C(C)c1ccc2c(c1)SCC1CCCCC1C2=O` (centres undefined) the figure was 14.6%.
Take `CC(C(=O)N1CCN(C)CC1)c1ccc2c(c1)SCC1CCCCC1C2=O` (centres undefined): the inhibition in vivo at 5 mg/kg turned out to be 5.3%.
For `CC(C(=O)NCC(=O)O)c1ccc2c(c1)SCC1CCCCC1C2=O` (centres undefined), the inhibition in vivo at 5 mg/kg amounted to 29.7%.
In the case of `CC(C(=O)OCc1ccccn1)c1ccc2c(c1)SCC1CCCCC1C2=O` (centres undefined), the inhibition in vivo at 5 mg/kg amounted to 30.6%.
In the case of `CC(C(=O)N1CCOCC1)c1ccc2c(c1)SCC1CCCCC1C2=O` (centres undefined), the inhibition in vivo at 5 mg/kg worked out at 7.1%.
On to `CCCCOC(=O)C(C)c1ccc2c(c1)SCC1CCCCC1C2=O` (centres undefined), for which the inhibition in vivo at 5 mg/kg is 26%.
As to `CC(C(=O)OCCc1ccccc1)c1ccc2c(c1)SCC1CCCCC1C2=O` (centres undefined), the inhibition in vivo at 5 mg/kg amounted to 39.1%.
Take `CC(C(=O)OCCCc1ccccc1)c1ccc2c(c1)SCC1CCCCC1C2=O` (centres undefined): the inhibition in vivo at 5 mg/kg is 26%.
Regarding `CCOC(=O)COC(=O)C(C)c1ccc2c(c1)SCC1CCCCC1C2=O` (centres undefined), the inhibition in vivo at 5 mg/kg was determined as 20.2%.
As to `COC(=O)C(C)c1ccc2c(c1)SCC1CCCCC1C2=O` (centres undefined), the inhibition in vivo at 5 mg/kg turned out to be 21.6%.
As for `C=CCOC(=O)C(C)c1ccc2c(c1)SCC1CCCCC1C2=O` (centres undefined), the inhibition in vivo at 5 mg/kg is 33.5%.
The same measure, in the same setting: with `COc1ccc2c(c1)c(CC(=O)O)c(C)n2C(=O)c1ccc(Cl)cc1` [INDOMETHACIN] the figure was 36.3%.

The species named for the next data set is Rattus norvegicus. Kind of data set: The compound was tested for gastric ulcerogenicity in rats; ca. 57.
Conditions: not given
The format is functional, Stomach.
For `CCOC(=O)C(C)c1ccc2c(c1)SCC1CCCCC1C2=O` (centres undefined), the UD50 worked out at 57 mg/kg.

The next data set is filed under the species Rattus norvegicus. Kind of data set: The compound was tested for gastric ulcerogenicity in rats; ca. 8. The format is functional, Stomach.
Conditions: not given
`COc1ccc2c(c1)c(CC(=O)O)c(C)n2C(=O)c1ccc(Cl)cc1` [INDOMETHACIN]: the UD50 was determined as 8 mg/kg.

System in the next data set: not listed separately
Kind of data set: The compound was tested for acute toxicity in mice after oral administration. Type of data set: organism-based. Particulars: mouse, in vivo.
`CC(C(=O)OCCc1ccccc1)c1ccc2c(c1)SCC1CCCCC1C2=O` (centres undefined) yielded a 50% lethal dose (LD50) of 644 mg/kg.
In turn, `COc1ccc2c(c1)c(CC(=O)O)c(C)n2C(=O)c1ccc(Cl)cc1` [INDOMETHACIN] had an LD50 of 23 mg/kg.

System in a further data set: not listed separately
Kind of data set: Safety index is the ratio of UD50 to ED50 in carrageenan hind paw edema. The format is toxicity. Particulars: read-out: Safety index.
`CC(C(=O)OCCc1ccccc1)c1ccc2c(c1)SCC1CCCCC1C2=O` (centres undefined): the selectivity ratio is > 35.
For the molecule `COc1ccc2c(c1)c(CC(=O)O)c(C)n2C(=O)c1ccc(Cl)cc1` [INDOMETHACIN], the selectivity ratio was 2.4.

By ED50 is commonly meant the midpoint of the dose-response relation. The term LD50 denotes the dose expected to kill half of the subjects tested. Broadly, the inhibition in vivo is the change of the read-out against control, counted positive when it falls.

The record behind these values is ChEMBL document CHEMBL1125038, “Synthesis and antiinflammatory activity of cis- and trans-6,6a,7,8,9,10,10a,11-octahydro-11-oxodibenzo[b,e]thiepinacetic and -oxepinacetic acids” (J Med Chem, 1990).
